Assay results taken from patent US5308836A, “Pharmaceutical composition of stabilized [Leu^13 ]-motilin-Hse” (Sanwa Kagaku Kenkyusho Co., Ltd., priority 1991, dated 1994).
Read-outs that look alike come from different tables or passages of the source.

What was measured:
[1] = format: physicochemical; conditions: for Amount of formed [Leu^13 ]-motilin-Hse-lactone: aqueous solution 20 μg/ml
Procedure: An aqueous solution containing 20 μg/ml of [Leu^13 ]-motilin-Hse was aseptically prepared by dissolving 1 mg of [Leu^13 ]-motilin-Hse in a refined water and adding 0.1N-sodium hydroxide and 0.1N-hydrochloric acid to adjust pH of the solution to 6.0 or 7.0.
Each of the solutions different in pH value was aseptically charged in a glass vial to seal the same. Each vial was stored in a constant temperature bath kept at 60° C. for 30 days and then a remaining amount of [Leu^13 ]-motilin-Hse was measured with HPLC method. […]
An aqueous solution containing 20 μg of [Leu^13 ]-motilin-Hse and 30 mg/ml of tartaric acid was aseptically prepared by dissolving 1 mg of [Leu^13 ]-motilin-Hse and tartaric acid in a refined water and adding 0.1N-sodium hydroxide and 0.1N-hydrochloric acid to adjust pH of the solution to 6.0 or 7.0.
(§1) Aqueous solutions, each containing 20 μg/ml of [Leu^13 ]-motilin were aseptically prepared by dissolving 1 mg of [Leu^13 ]-motilin in a refined water and adding 0.1N-sodium hydroxide and 0.1N-hydrochloric acid to adjust pH of each solution in various values.
Each of the solutions different in pH value was aseptically charged in a glass vial to seal the same. Each vial was stored in a constant temperature bath kept at 60° C. for 30 days and then a remaining amount of [Leu^13 ]-motilin was measured with HPLC method to check the relation with the pH value of the solution.
Aqueous solutions, each containing 20 μg/ml of [Leu^13 ]-motilin-Hsewere aseptically prepared by dissolving 1 mg of [Leu^13 ]-motilin-Hse in a refined water and adding 0.1 N-sodium hydroxide and 0.1 N-hydrochloric acid to adjust pH of each solution in various values.
Each of the solutions different in pH value was aseptically charged in a glass vial to seal the same. Each vial was stored in a constant temperature bath kept at 60° C. for 30 days and then a remaining amount of [Leu^13 ]-motilin-Hse and amount of [Leu^13 ]-motilin-Hse-lactone formed by modification of Hse residue at 23-position of the former were measured with HPLC method to check the relation with the pH value of the solution.
Aqueous solutions, each containing 20 μg/ml of [Leu^13 ]-motilin-Hseand 30 mg/ml of tartaric acid were aseptically prepared by dissolving 1 mg of [Leu^13 ]-motilin-Hse and tartaric acid in a refined water and adding 0.1 N-sodium hydroxide and 0.1 N-hydrochloric acid to adjust pH of each solution in various values.
Aqueous solutions, each containing 20 μg/ml of [Leu^13 ]-motilin-Hseand 27.2 mg/ml of potassium dihydrogenphosphate were aseptically prepared by dissolving 1 mg of [Leu^13 ]-motilin-Hse and potassium dihydrogenphosphate in a refined water and adding 0.1 N sodium hydroxide and 0.1 N-hydrochloric acid to adjust pH of each solution in various values.

[2] = format: physicochemical; conditions: lyophilized powder, no additive
Procedure: as §1
Each of the solutions different in pH value was aseptically charged in a glass vial to lyophilize the same. Each vial was stored in a constant temperature bath kept at 60° C. for 30 days and then a remaining amount of [Leu^13 ]-motilin was measured with HPLC method to check the relation with the pH value of the solution.
Aqueous solutions, each containing 20 μg/ml of [Leu^13 ]-motilin-Hsewere aseptically prepared by dissolving 1 mg of [Leu^13 ]-motilin-Hse in a refined water and adding 0.1N-sodium hydroxide and 0.1N-hydrochloric acid to adjust pH of each solution in various values.
Each of the solutions different in pH value was aseptically charged in a glass vial to lyophilize the same. Each vial was stored in a constant temperature bath kept at 60° C. for 30 days and then a remaining amount of [Leu^13 ]-motilin-Hse and amount of [Leu^13 ]-motilin-Hse-lactone formed by modification of Hse residue at 23-position of the former were measured with HPLC method to check the relation with the pH value of the solution. […]

[3] = compared with native type motilin and [Leu^13 ]-motilin; cited from earlier work

Substance: [Leu^13 ]-motilin-Hse
- pH range of relatively stable state ([1]; [Leu^13 ]-motilin-Hse aqueous solution, no additive, 60° C. 30 days): 4.0-6.0
- Amount of formed [Leu^13 ]-motilin-Hse-lactone ([1]; 27.2 mg/ml potassium dihydrogenphosphate, pH 3.0, 60° C. 30 days): 31.1%
- Amount of formed [Leu^13 ]-motilin-Hse-lactone ([1]; 27.2 mg/ml potassium dihydrogenphosphate, pH 4.0, 60° C. 30 days): 17.5%
- Amount of formed [Leu^13 ]-motilin-Hse-lactone ([1]; 27.2 mg/ml potassium dihydrogenphosphate, pH 4.5, 60° C. 30 days): 9.3%
- Amount of formed [Leu^13 ]-motilin-Hse-lactone ([1]; 27.2 mg/ml potassium dihydrogenphosphate, pH 5.0, 60° C. 30 days): 5.7%
- Amount of formed [Leu^13 ]-motilin-Hse-lactone ([1]; 27.2 mg/ml potassium dihydrogenphosphate, pH 5.5, 60° C. 30 days): 2.1%
- Amount of formed [Leu^13 ]-motilin-Hse-lactone ([1]; 27.2 mg/ml potassium dihydrogenphosphate, pH 6.0, 60° C. 30 days): 0%
- Amount of formed [Leu^13 ]-motilin-Hse-lactone ([1]; 27.2 mg/ml potassium dihydrogenphosphate, pH 6.5, 60° C. 30 days): 0%
- Amount of formed [Leu^13 ]-motilin-Hse-lactone ([1]; 27.2 mg/ml potassium dihydrogenphosphate, pH 7.0, 60° C. 30 days): 0%
- Amount of formed [Leu^13 ]-motilin-Hse-lactone ([1]; 27.2 mg/ml potassium dihydrogenphosphate, pH 8.0, 60° C. 30 days): 0%
- Amount of formed [Leu^13 ]-motilin-Hse-lactone ([1]; 27.2 mg/ml potassium dihydrogenphosphate, pH 9.0, 60° C. 30 days): 0%
- Amount of formed [Leu^13 ]-motilin-Hse-lactone ([1]; 30 mg/ml tartaric acid, pH 3.0, 60° C. 30 days): 29.7%
- Amount of formed [Leu^13 ]-motilin-Hse-lactone ([1]; 30 mg/ml tartaric acid, pH 4.0, 60° C. 30 days): 16.8%
- Amount of formed [Leu^13 ]-motilin-Hse-lactone ([1]; 30 mg/ml tartaric acid, pH 4.5, 60° C. 30 days): 6.4%
- Amount of formed [Leu^13 ]-motilin-Hse-lactone ([1]; 30 mg/ml tartaric acid, pH 5.0, 60° C. 30 days): 2.7%
- Amount of formed [Leu^13 ]-motilin-Hse-lactone ([1]; 30 mg/ml tartaric acid, pH 5.5, 60° C. 30 days): 1.5%
- Amount of formed [Leu^13 ]-motilin-Hse-lactone ([1]; 30 mg/ml tartaric acid, pH 6.0, 60° C. 30 days): 0%
- Amount of formed [Leu^13 ]-motilin-Hse-lactone ([1]; 30 mg/ml tartaric acid, pH 6.5, 60° C. 30 days): 0%
- Amount of formed [Leu^13 ]-motilin-Hse-lactone ([1]; 30 mg/ml tartaric acid, pH 7.0, 60° C. 30 days): 0%
- Amount of formed [Leu^13 ]-motilin-Hse-lactone ([1]; 30 mg/ml tartaric acid, pH 8.0, 60° C. 30 days): 0%
- Amount of formed [Leu^13 ]-motilin-Hse-lactone ([1]; 30 mg/ml tartaric acid, pH 9.0, 60° C. 30 days): 0%
- Amount of formed [Leu^13 ]-motilin-Hse-lactone ([1]; no additive, pH 3.0, 60° C. 30 days): 30.2%
- Amount of formed [Leu^13 ]-motilin-Hse-lactone ([1]; no additive, pH 4.0, 60° C. 30 days): 18.7%
- Amount of formed [Leu^13 ]-motilin-Hse-lactone ([1]; no additive, pH 4.5, 60° C. 30 days): 8.7%
- Amount of formed [Leu^13 ]-motilin-Hse-lactone ([1]; no additive, pH 5.0, 60° C. 30 days): 5.5%
- Amount of formed [Leu^13 ]-motilin-Hse-lactone ([1]; no additive, pH 5.5, 60° C. 30 days): 1.9%
- Amount of formed [Leu^13 ]-motilin-Hse-lactone ([1]; no additive, pH 6.0, 60° C. 30 days): 0%
- Amount of formed [Leu^13 ]-motilin-Hse-lactone ([1]; no additive, pH 6.5, 60° C. 30 days): 0%
- Amount of formed [Leu^13 ]-motilin-Hse-lactone ([1]; no additive, pH 7.0, 60° C. 30 days): 0%
- Amount of formed [Leu^13 ]-motilin-Hse-lactone ([1]; no additive, pH 8.0, 60° C. 30 days): 0%
- Amount of formed [Leu^13 ]-motilin-Hse-lactone ([1]; no additive, pH 9.0, 60° C. 30 days): 0%
- Amount of formed [Leu^13 ]-motilin-Hse-lactone ([2]; solution pH 3.0, 60° C. 30 days): 25.1%
- Amount of formed [Leu^13 ]-motilin-Hse-lactone ([2]; solution pH 4.0, 60° C. 30 days): 16.9%
- Amount of formed [Leu^13 ]-motilin-Hse-lactone ([2]; solution pH 4.5, 60° C. 30 days): 7.3%
- Amount of formed [Leu^13 ]-motilin-Hse-lactone ([2]; solution pH 5.0, 60° C. 30 days): 3.9%
- Amount of formed [Leu^13 ]-motilin-Hse-lactone ([2]; solution pH 5.5, 60° C. 30 days): 1.8%
- Amount of formed [Leu^13 ]-motilin-Hse-lactone ([2]; solution pH 6.0, 60° C. 30 days): 0%
- Amount of formed [Leu^13 ]-motilin-Hse-lactone ([2]; solution pH 6.5, 60° C. 30 days): 0%
- Amount of formed [Leu^13 ]-motilin-Hse-lactone ([2]; solution pH 7.0, 60° C. 30 days): 0%
- Amount of formed [Leu^13 ]-motilin-Hse-lactone ([2]; solution pH 8.0, 60° C. 30 days): 0%
- Amount of formed [Leu^13 ]-motilin-Hse-lactone ([2]; solution pH 9.0, 60° C. 30 days): 0%
- biological activities [3]: higher biological activities
